Square brackets hold non-standard residues; d marks the D form. Ends that are not written are not given here.
Columns and labels:
Assay type in all cases: cell-based
S. aureus = test: Radial diffusion in the presence of RBCs; set-up: key: The ↑ represents the improvement in performance that would be desired for a viable in vivo antimicrobial peptide; ↓: The symbol represents a regression in desired behavior; *=p<0.05; **=p<0.01; ***=p<0.001; conditions: change versus parent sequence; paired t-test
Protocol: Underlay agarose was prepared by adding 5 g of low EEO agarose and 0.03 g of TSB to 500 mL of 10 mM phosphate buffer (pH=7.4). Overlay agarose was prepared by adding 5 g of low EEO agarose and 30 g of TSB to 500 mL of 10 mM phosphate buffer (pH=7.4). Both solutions were heated until the agarose melted and then were autoclaved. To a rectangular, one-well plate, 20 mL of underlay agarose, inoculated with 8×10^6 CFUs of bacteria, was added. A sterile, 96-well plate replicator from Sigma-Aldrich was set in the molten agarose and removed one the agarose solidified. Antibiotic was prepared at 4 times the final desired concentration. For the antibiotic standard, a serial dilution of 3:4 across a 96-well plate was performed followed by 1:4 dilution with PBS. Otherwise, the peptide was diluted to 20 μM with RBCs and/or serum to give between 2% (1×10^8 cells/mL) and 20% (1×10^9 cells/mL). Solutions were incubated with gentle shaking for 30 minutes at 37° C. […]. Overlay was added, and the plate was incubated upside down overnight. Surface growth was cleared, the plates were sterilized with 25% methanol and 5% acetic acid. Zones of inhibition were photographed and analyzed using ImageJ. (FIG. 21)
(§1) The engineered peptide sequences and their derivation from parent sequences is shown, along with the underlying hypothesis described for the first set of peptides (Table 4) and the second set (Table 5). We performed statistical testing for performance in antimicrobial assays in the presence and absence of RBCs, as well as for cytotoxicity. The broth dilution results were tested using a two sample t-test (N=6-22). The radial diffusion results were tested using a paired t-test (N=4). The cytotoxicity results were tested using a paired t-test (N=3). The ↑ represents the improvement in performance that would be desired for a viable in vivo antimicrobial peptide. This corresponds to a decrease in MIC values (increased potency) and decreased cytotoxicity. The symbol represents a regression in desired behavior. (*=p<0.05, **=p<0.01, ***=p<0.001).

human RBCs = test: Hemolysis assay; set-up: key: The ↑ represents the improvement in performance that would be desired for a viable in vivo antimicrobial peptide; ↓: The symbol represents a regression in desired behavior; *=p<0.05; **=p<0.01; ***=p<0.001; conditions: change versus parent sequence; ↑ = improvement (decreased cytotoxicity); paired t-test
Protocol: Peptide was serially diluted in PBS starting at a concentration of 100 μM. The final volume of each peptide in each well was 50 μL. To each well, 50 μL of RBCs in PBS at 2×10^8 cells/mL was added. As a positive lysis control, 1% TRITON™ was used. The mixtures were incubated at 37° C. for 1 hour, after which they were centrifuged at 1000×g for 5 minutes. After centrifugation, 10 μL of supernatant was transferred to 90 μL of DI H2O in a fresh 96-well plate. The absorbance of released hemoglobin at 410 nm was recorded and the fractional hemolysis was calculated based on the 100% and 0% lysis controls. (FIGS. 22, 23, and 26)
as §1

[1] = system: Hela cells stably transfected with mCherry and GFP1-10; test: Split GFP assay (GFP-11 delivery); conditions: for GFP fluorescence above background / GFP fluorescence level: 10 μM; for GFP-11 delivery: all concentrations and temperatures studied
Protocol: To test the ability of CPPs to deliver other cargoes, specifically a protease-sensitive peptide cargo, we modified the well-known split-GFP assay. CPPs were tested for the ability to deliver the polar 16-residue GFP-11 peptide across the membrane barrier. This peptide rescues the fluorescence of the cytosolic endogenous, non-fluorescent GFP1-10 protein. Here, we stably transfected Hela cells with a plasmid containing the full length mCherry and the non-fluorescent GFP1-10. Following incubation with CPP-GFP-11 constructs at multiple concentrations and temperatures for 30 minutes in serum free DMEM, cells were analyzed by flow cytometry for mCherry and GFP fluorescence (FIG. 17). Live cells expressing mCherry (˜50% of the total cells) were gated and their GFP fluorescence was analyzed. Unlike the luciferase splice correction assay where a single corrected mRNA transcript serves as template for many molecules of functional luciferase, the split GFP assay is stoichiometric; a single GFP-11 peptide can bind to a single GFP1-10 protein producing a finite fluorescent response.
Hela cells were transfected with p_mCherry-GFP1-10 (Addgene plasmid #78591) using LIPOFECTAMINE® 3000 (ThermoFisher). Single mCherry positive cells were sorted into 96-well plates using a BD™ FACSARIA™ cell sorter and colonies were maintained under G418 selection at […]. Stably transfected cells were plated in 12-well plates at 100,000 cells/well and grown overnight in complete DMEM. Cells were washed in PBS and incubated in 500 μl of CPP-GFP-11 solution at variable concentrations at 23° C. and 37° C. for 30 minutes. The CPP-GFP-11 solution was aspirated and 100 μl of 0.025% trypsin solution was added to each well. After detachment, cells were suspended in 500 μL of PBS+2% FBS and 20 mM HEPES. Cells were analyzed using a BD™ LSRII flow cytometer. Cells displaying a normal morphology were gated and first analyzed for mCherry fluorescence using the 543 nM laser. mCherry+ cells were used to generate a histogram of GFP fluorescence measured with the 488 nM laser.

[2] = system: HeLa, RAW264.7, HepG2, and MCF-7 cells; test: TAMRA delivery assay (flow cytometry, confocal microscopy); conditions: 0.5 μM CPP-TA + 4.5 μM CPP-C, 30 minutes at 4° C., 22° C., or 37° C.
Protocol: To determine the effect of the PNA cargo on delivery, we labeled CPPs, lacking the PNA705 cargo, with the fluorophore TAMRA on a C-terminal cysteine residue (CPP-TA) and measured delivery to multiple cell types. TAMRA-labelled CPPs, mixed with unlabeled CPPs at a 1:10 ratio in serum-free DMEM for a final concentration of 5 μM total peptide, was added to HeLa, RAW264.7, HepG2, and MCF-7 cells in 12-well cell culture plates and incubated for 30 minutes at 4° C., 22° C., or 37° C. prior to flow cytometric analysis (FIGS. 9-16). […] Delivery of TAMRA was verified by confocal microscopy for each cell type.
Hela, RAW264.7, HCT116, HepG2, and MCF-7 cells were plated in 12-well plates at 100,000 cells/well. After 24 hours, cells were gently washed in PBS, topped with 500 μl of CPP-TA solution containing 0.5 μM CPP-TA+4.5 uM CPP-C in sfDMEM without phenol red, and incubated for 30 min at either 4° C., 23° C., or 37° C. The incubation solution was aspirated and cells were treated with 100 μl 0.025% Trypsin for 3 minutes at 23° C. 500 μl DMEM containing 2% FBS, 125 nM Sytox Green, and 20 mM HEPES was used to suspend the cells. Cells were transferred to a filter-topped flow cytometry tube and analyzed on a BD™ LSR II flow cytometer. Cells displaying a normal morphology were gated and first analyzed for GFP fluorescence using the 488 nM laser. GFP negative cells were used to generate a histogram of TAMRA fluorescence, measured with the 543 nM laser.
Cells were treated as described above for the TAMRA delivery assay and immediately imaged to avoid artifacts resulting from fixation. The distribution of TAMRA and Sytox Green was analyzed using a confocal scanning Nikon Eclipse Ti2 inverted microscope using a 40× oil-immersion objective. Sytox Green was excited using the 488 nM laser and TAMRA was excited using the 543 nM laser.

Hela pTRE-LucIVS2 cells = test: ALAMARBLUE toxicity assay of CPP-PNA705; conditions: 10 μM CPP-PNA705 conjugate, after 24 hours
Protocol: CPP-PNA705 cytotoxicity was assessed using several methods known in the art. A Lactate Dehydrogenase (LDH) assay (FIG. 5A) measured the acute cytotoxicity and detects LDH released by cells because of membrane damage resulting from exposure to the CPPs. An ALAMARBLUE® assay (FIG. 5B) and a Bicinchoninic Acid (BCA) Assay (FIG. 5C) both measure the impact of exposure after 24 hours. In the ALAMARBLUE®, assay some reduction in metabolic activity was detected in Hela705 cells treated with 20 μM CPP-PNA705 concentrations for 1 hour.
Hela pTRE-LucIVS2 cells were plated in 96-well plates at 10,000 cells/well. After 24 hours, cells were treated with CPP constructs for 1 Hr in sfDMEM at 37° C., washed in PBS, and allowed to recover for 24 hours in 100 μl complete media. 10 μl ALAMARBLUE® (ThermoFisher) was added to each well and cells were incubated fo4r 2 Hrs at 37° C. Reduction of ALAMARBLUE® was determined by fluorescence at […].

| Substance | Radial Diffusion vs. S. aureus (S. aureus) | Hemolysis (human RBCs) | further results |
| --- | --- | --- | --- |
| RRGWAFRRALAYGRR [D-GNS2] | ↑Radial diffusion vs. | ↓Hemolysis** |  |
| CPP-1-GFP-11: CPP-1 linked to the polar 16-residue GFP-11 peptide (SEQ ID NO: 12) (RKKRWFRRRRPKWKKRDHMVLHEYVNAAGIT) |  |  | GFP fluorescence above background ([1]; 37° C.): 44%; GFP fluorescence above background ([1]; room temperature): 72% |
| RRGWARRLAFAFGRR [RAT4] | ↑Radial Diffusion vs. | ↑Hemolysis* |  |
| KKGWAKKLAFAFGKK [D-KON] | ↓Radial diffusion vs. |  |  |
| CPP-1(D)-GFP-11: D-amino acid version of CPP-1 attached to normal L-amino acid GFP-11 ([dR][dK][dK][dR][dW][dF][dR][dR][dR][dR][dP][dK][dW][dK][dK]RDHMVLHEYVNAAGIT) |  |  | D-form CPP versus L-form CPP, GFP-11 delivery [1]: outperformed CPP-1-GFP-11 under all other conditions |
| RRGWARRLAFGRR [RAT7] |  | ↑Hemolysis** |  |
| CPP-2-GFP-11: CPP-2 linked to the 16-residue GFP-11 peptide (SEQ ID NO: 12) (GRKKRWFRRRRMKWKKRDHMVLHEYVNAAGIT) |  |  | GFP fluorescence level [1]: background fluorescence levels |
| RIKRRFRRLRPKWKK [CPP-3] |  |  | TAMRA delivery (words, rank order) [2]: CPP-2»CPP-3=CPP-1>CPP-4>TAT=penetratin; GFP-11 delivery [1]: deliver GFP-11 to more cells than Tat and penetratin; reduction in metabolic activity (Hela pTRE-LucIVS2 cells): little effect |
| RRWARRLFFAYRR [RAT1] | ↑Radial Diffusion vs. |  |  |
| RRGWARRLFFAYGRR [D-DBS1] | ↑Radial diffusion vs. | ↓Hemolysis* |  |
| RRGWARRLAFAFGRR [D-RAT4] | ↑Radial Diffusion vs. |  |  |
| RRGWALRLVLAYGRR [RAT3] |  | ↓Hemolysis* |  |
| RRGWARRLRLAFAFGRR [RAT5] | ↑Radial Diffusion vs. | ↓Hemolysis* |  |
| RRWNLALTLTYYRR [RAT2] |  | ↓Hemolysis* |  |
| Tat(D)-GFP-11: D-amino acid version of Tat attached to normal L-amino acid GFP-11 (G[dR][dK][dK][dR][dR][dQ][dR][dR][dR][dP][dP][dQ]RDHMVLHEYVNAAGIT) [reference compound] |  |  | GFP fluorescence ([1]; concentrations lower than 40 μM): just above background |
| GRKKRWFRRRRMKWKK [CPP-2] |  |  | TAMRA delivery (words, rank order) [2]: CPP-2»CPP-3=CPP-1>CPP-4>TAT=penetratin; GFP-11 delivery [1]: deliver GFP-11 to more cells than Tat and penetratin; reduction in metabolic activity (Hela pTRE-LucIVS2 cells): 10% |
| CPP-3-GFP-11: CPP-3 linked to the 16-residue GFP-11 peptide (SEQ ID NO: 12) (RIKRRFRRLRPKWKKRDHMVLHEYVNAAGIT) |  |  | GFP fluorescence level [1]: background fluorescence levels |
| RRGWARRLAFAFAFGRR [RAT6] |  | ↓Hemolysis* |  |

Reference: patent US11266743B2, “Peptide compositions and methods of use thereof” (priority 2017, dated 2022)
